Tests used:
[1] = NO release from polymer films/coatings containing NO donor in PBS buffer at 37° C. by chemiluminescence; format: physicochemical
Protocol: Thermal stability of diazeniumdiolates. […] Kinetics. […] Use in Hydrophobic Systems.
In the absence of the KTpClPB, NO release decreases dramatically after approximately 1 hour. […] The decrease in NO release observed is believed to result from an increase in the pH within the organic polymer film, which decreases the decomposition rate of lipophilic diazeniumdiolates. As water diffuses into the film initiating NO release, secondary amine sites result. The secondary amine sites have a higher pKa than water and therefore deprotonate water to form hydroxide ions. The basic microdomain environment that results within the polymer, in turn, slows further decomposition of the remaining diazeniumdiolates that would generate NO. This retardation may occur as a result of the organic ammonium hydroxide microphases within the polymer, which in turn serves to stabilize the remaining diazeniumdiolates.
FT-IR were collected on Perken Elmer Spectrum VX. […] Elemental analyses were performed. Reagents. […] NO was purchased from Matheson Gases. […] General NO Addition Procedure. […] The products were finally collected and dried under vacuum. Molar Extinction Coefficients. […] The maximum wavelength and absorbance were collected. […] Kinetics Studies. […] The NO released was measured using chemiluminescence. […] Preparation of Polymer Films Containing Diazeniumdiolates. […] The membranes were covered and allowed to cure overnight. […] Polymerization to Form Boc-protected Diamine Copolymer.
General Procedure for Deprotection to Form Diamine Copolymer (c). 35 mg of the copolymer (b) was dissolved in 2 mL of dichloromethane and then 200 μL of TFA (trifluoroacetic acid) was added dropwise. The solution was stirred at room temperature for about 3 hours. The reaction mixture was diluted with 20 mL of dichloromethane, and the organic phase was then washed with sodium bicarbonate, water, and brine, and was dried with sodium sulfate. The solvent was evaporated and the resulting copolymer was dried under vacuum overnight. ^1H-NMR was performed to confirm the structure and actual composition of the copolymer. General Procedure for NO Loading to Form Polymer-Based NO Donor (d). 20 mg of the deprotected copolymer (c) was dissolved in 3 mL of dry THF and placed in a high pressure reactor with a stirring bar, and flushed with argon for about 10 minutes. 100% excess of sodium methoxide (with respect to free amine sites) was added and the reactor was closed. The reactor was purged with argon again for several times (e.g. ten times) over a 1 hour period and was charged with NO at 80 psi. The reaction mixture was stirred for 72 hours at room temperature. After the reaction was complete, the copolymer was precipitated with dry hexane under argon. The remaining solvent was removed using a vacuum, and the diazeniumdiolated copolymers (d) were examined by UV-Vis spectrum as well as NOA. This resulting copolymer was stored in sealed vials charged with argon in a freezer. Preparation of Polymer Films Containing Polymer-Based No Donor. Polymer membranes containing the polymer-based NO donor was prepared by dissolving 60.8 mg poly(vinyl chloride) (PVC), 30.4 mg dioctyl sebacate (DOS), and 9.1 mg poly(lactide-co-glycolide) (50:50) (PLGA 50:50) in 1.5 mL of freshly distilled tetrahydrofuran. […] A trilayer film configuration is employed to fabricate films. […] Four hours later the polymer cocktail was cast on top of the PVC layer. After another 4 hours, the PVC solution was cast again as a finish layer. The membrane was covered and allowed to cure overnight. Polymer films containing no additives were prepared in a similar manner. […] NO Release Measurements by Chemiluminescence. All NO measurements were performed using a Sievers Nitric Oxide Analyzer (NOA), model 280. The instrument was calibrated before each experiment using an internal two-point calibration (zero gas and 45 PPM). The flow rate was set to 200 mL/min with a cell pressure of 5.4 torr and an oxygen pressure of 6.0 psig. […]

[2] = Thermal gravimetric analysis under nitrogen (thermal stability of diazeniumdiolates); format: physicochemical; settings: nitrogen atmosphere
adult sheep = test: Coated VECTRA vascular access grafts implanted as arteriovenous grafts in sheep, 21 days; format: in vivo
Source text: Synthetic vascular access grafts (VECTRA™), a proprietary blend of segmented polyetherurethane and siloxane (20 cm in length and 5 mm in diameter), were coated with compound 2d dispersed within a PVC/DOS matrix with appropriate additives. A sheep model was used for in vivo testing. Arteriovenous grafts connecting the common carotid artery to the ipsilateral external jugular vein were surgically implanted in subcutaneous tunnel in adult sheep. Over a 3-week period, duplex ultrasound and clinical examination were performed to assess graft patency. Grafts were removed at 21 days and underwent gross and histological evaluation. […] In addition, histological studies, using appropriate stains to highlight different regions, confirm the thrombus adherent at the luminal surface and red blood cell infiltration into upper layers of the control grafts (FIG. 11A).

- TNO loss (stable up to) [2]: 104 °C
- t1/2 ("apparent" t1/2 and t1/2) (buffer, pH 7.4): 4.95 ± 0.567 min
SMILES: CCCCNCCCCCCN(CCCC)/[N+]([O-])=N/O [Compound 2d, (Z)-1-{N-Butyl-N-[6-(N-butylammoniohexyl)amino]}-diazen-1-ium-1,2-diolate]
- effect of doubling the NO donor amount ([1]; 4 wt. % vs 8 wt. % in 1:2 PVC/DOS film with KTpClPB): nearly doubles the surface flux and the NO release
- effect of plasticizer on NO release ([1]; PVC/NPOE matrix compared with PVC/DOS matrix, with KTpClPB): higher initial NO release
- effect of increasing polymer to plasticizer ratio on NO release ([1]; PVC:DOS increased from 1:2 to 2:1, films with KTpClPB): the NO release rate decreases and the release is prolonged
- period of steady NO release ([1]; SR tubes coated with plasticized SR, 4.2 wt. % donor, 8.1 wt. % KTpClPB, PBS buffer at 37° C.): 40 h
- total estimated NO released from the surface of the tube ([1]; SR tubes coated with plasticized SR, 4.2 wt. % donor, 8.1 wt. % KTpClPB, after 40 h in PBS buffer at 37° C.): 15%
- time after which NO release decreases dramatically ([1]; plasticized PVC film, absence of KTpClPB): approximately 1 hour
- effect of adding KTpClPB on NO release ([1]; plasticized PVC films, 1:1 mol ratio KTpClPB:donor, PBS pH 7.4, 37° C.): increases, prolongs, and helps to control the release of NO
- total NO release profile from film without additive ([1]; ~5 wt. % in PVC film plasticized with DOS (1:2), PBS buffer, 37° C., no KTpClPB): never achieving theoretical total NO release
- k (first order decomposition, PBS buffer, pH 7.4, 37° C., n > 3): 0.0025 ± 0.0002 s⁻¹
- graft patency (adult sheep; duplex ultrasound and clinical examination, n=2): patent at 21 days
- mean luminal thrombus-free surface area (adult sheep; grafts coated with donor in PVC/DOS matrix, removed at 21 days, n=2): 95%
- histological evaluation of grafts (adult sheep; grafts removed at 21 days): minimal thrombus formation and red blood cell infiltration
- gross evaluation of thrombus formation on grafts (adult sheep; grafts removed at 21 days, vs control grafts): greatly reduced degree of thrombus formation
